Data on 30 molecules can be found in US10865191B2, “Heterocyclic compounds useful as modulators of TNF alpha” (BRISTOL-MYERS SQUIBB COMPANY, priority 2015, dated 2020).

Chain of TNFα (P01375 77-233 limits assumed): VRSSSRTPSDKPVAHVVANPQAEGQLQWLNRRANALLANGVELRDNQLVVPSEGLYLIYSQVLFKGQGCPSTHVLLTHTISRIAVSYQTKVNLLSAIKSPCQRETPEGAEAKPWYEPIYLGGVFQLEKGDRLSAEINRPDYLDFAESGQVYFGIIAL

In the assay the target is TNFα (Homo sapiens, UniProt P01375). Briefly: TNF induced HEK-Blue assay (NF-kB-driven secreted alkaline phosphatase reporter). The settings on record: TNFα 0.5 ng/mL, HEK-Blue-CD40L cells, 18 h; read-out: TNF induced HEK-Blue assay IC50 value. Type of assay: cell-based. The gist of the method:
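HEK-Blue-CD40L cells (NF-kB-driven SEAP reporter), 20,000/well, added after 30 min pre-incubation of compound (0.004–25 μM final) with TNFα 0.5 ng/mL final at 37 °C; 18 h incubation. SEAP read with QUANTI-Blue at 620 nm; IC50 from 4-parameter logistic fit, normalized to unstimulated and stimulated DMSO controls.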
As for `CC(Nc1c(Cl)cnc2cc(F)c(-c3cnc(C4(O)CCS(=O)(=O)CC4)nc3)cc12)c1ccccc1F` (stereo not drawn) [Example 289, 4-(5-(3-chloro-7-fluoro-4-((1-(2-fluorophenyl)ethyl)amino)quinolin-6-yl)pyrimidin-2-yl)-4-hydroxytetrahydro-2H-thiopyran 1,1-dioxide], the IC50 was less than 1000 nM.

`CC(Nc1c(Cl)cnc2cc(F)c(-c3ccc(C(O)CO)cc3)cc12)c1ccccc1F` (stereo not drawn) [Example 290, 1-(4-(3-chloro-7-fluoro-4-((1-(2-fluorophenyl)ethyl)amino)quinolin-6-yl)phenyl)ethane-1,2-diol]: the IC50 was less than 1000 nM.

Take `CC(Nc1c(Cl)cnc2cc(F)c(-c3ccc(C(O)CO)cc3)cc12)c1ccccc1F` (stereo not drawn) [Example 291, 1-(4-(3-chloro-7-fluoro-4-((1-(2-fluorophenyl)ethyl)amino)quinolin-6-yl)phenyl)ethane-1,2-diol]: the IC50 is less than 1000 nM.

As to `COCC(C)(O)c1ncc(-c2cc3c(NC(C)c4ccccc4F)c(Cl)cnc3cc2F)cn1` (stereo not drawn) [Example 292, 2-(5-(3-chloro-7-fluoro-4-((1-(2-fluorophenyl)ethyl)amino)quinolin-6-yl)pyrimidin-2-yl)-1-methoxypropan-2-ol], the IC50 was less than 1000 nM.

As for `COCC(C)(O)c1ncc(-c2cc3c(NC(C)c4ccccc4F)c(Cl)cnc3cc2F)cn1` (stereo not drawn) [Example 293, 2-(5-(3-chloro-7-fluoro-4-((1-(2-fluorophenyl)ethyl)amino)quinolin-6-yl)pyrimidin-2-yl)-1-methoxypropan-2-ol], the IC50 is less than 1000 nM.

With `CC(Nc1c(Cl)cnc2cc(F)c(-c3cnc(C4(O)CCC(C(=O)O)CC4)nc3)cc12)c1ccccc1F` (stereo not drawn) [Example 295, 4-(5-(3-chloro-7-fluoro-4-((1-(2-fluorophenyl)ethyl)amino)quinolin-6-yl)pyrimidin-2-yl)-4-hydroxycyclohexane-1-carboxylic acid], the IC50 was less than 1000 nM.

With `CC(C)(O)c1ncc(-c2cc(F)c3ncc(Cl)c(N[C@@H](c4ccccc4F)C(F)F)c3c2)cn1` [Example 297, (S)-2-(5-(3-chloro-4-((2,2-difluoro-1-(2-fluorophenyl)ethyl)amino)-8-fluoroquinolin-6-yl)pyrimidin-2-yl)propan-2-ol], the half-maximal inhibitory concentration (IC50) is less than 1000 nM.

As to `Cc1nc2c(F)cc(-c3cnc(C(C)(C)O)nc3)cc2c(N[C@@H](c2ccccc2F)C(F)F)c1Cl` [Example 299, (S)-2-(5-(3-chloro-4-((2,2-difluoro-1-(2-fluorophenyl)ethyl)amino)-8-fluoro-2-methylquinolin-6-yl)pyrimidin-2-yl)propan-2-ol], the concentration for half-maximal inhibition (IC50) is less than 1000 nM.

On to `Cc1nc2c(F)cc(-c3cnc(C(C)(C)O)nc3)cc2c(N[C@H](C)c2cc(C#N)ccc2F)c1Cl` [Example 302, (R)-3-(1-((3-chloro-8-fluoro-6-(2-(2-hydroxypropan-2-yl)pyrimidin-5-yl)-2-methylquinolin-4-yl)amino)ethyl)-4-fluorobenzonitrile], for which the half-maximal inhibitory concentration (IC50) was less than 1000 nM.

In the case of `Cc1nc2c(F)cc(-c3cnc(C(C)(C)O)nc3)cc2c(N[C@H](C)c2cc(C(N)=O)ccc2F)c1Cl` [Example 303, (R)-3-(1-((3-chloro-8-fluoro-6-(2-(2-hydroxypropan-2-yl)pyrimidin-5-yl)-2-methylquinolin-4-yl)amino)ethyl)-4-fluorobenzamide], the IC50 is less than 1000 nM.

Regarding `C[C@@H](Nc1c(Cl)cnc2cc(F)c(-c3cnc(N4CCN(CC(=O)NCC(=O)O)CC4)nc3)cc12)c1ccccc1F` [Example 304, (R)-(2-(4-(5-(3-chloro-7-fluoro-4-((1-(2-fluorophenyl)ethyl)amino)quinolin-6-yl)pyrimidin-2-yl)piperazin-1-yl)acetyl)glycine], the IC50 was less than 1000 nM.

With `Cc1nc2c(F)cc(-c3ccc(C(C)(C)O)cc3)cc2c(N[C@@H](c2ccccc2F)C(F)F)c1Cl` [Example 305, (S)-2-(4-(3-chloro-4-((2,2-difluoro-1-(2-fluorophenyl)ethyl)amino)-8-fluoro-2-methylquinolin-6-yl)phenyl)propan-2-ol], the IC50 is less than 1000 nM.

Consider `Cc1nc2c(F)cc(-c3cnc(C(C)(C)O)nc3)cc2c(NC(C)c2ccccc2)c1Cl` (stereo not drawn) [Example 306, 2-(5-(3-chloro-8-fluoro-2-methyl-4-((1-phenylethyl)amino)quinolin-6-yl)pyrimidin-2-yl)propan-2-ol], for which the IC50 was less than 1000 nM.

For the molecule `Cc1nc2ccc(-c3ccc(C(C)(C)O)cc3)cc2c(N[C@H](C)c2cc(C(N)=O)ccc2F)c1Cl` [Example 312, (R)-3-(1-((3-chloro-6-(4-(2-hydroxypropan-2-yl)phenyl)-2-methylquinolin-4-yl)amino)ethyl)-4-fluorobenzamide], the half-maximal inhibitory concentration (IC50) is less than 1000 nM.

For `Cc1nc2ccc(-c3cnc(N4CCOCC4)nc3)cc2c(N[C@H](C)c2cc(C(N)=O)ccc2F)c1Cl` [Example 313, (R)-3-(1-((3-chloro-2-methyl-6-(2-morpholinopyrimidin-5-yl)quinolin-4-yl)amino)ethyl)-4-fluorobenzamide], the concentration for half-maximal inhibition (IC50) was less than 1000 nM.

For the molecule `Cc1nc2ccc(-c3cnc(C(C)(C)O)nc3)cc2c(N[C@H](C)c2cc(C#N)ccc2F)c1C` [Example 314, (R)-4-fluoro-3-(1-((6-(2-(2-hydroxypropan-2-yl)pyrimidin-5-yl)-2,3-dimethylquinolin-4-yl)amino)ethyl)benzonitrile], the half-inhibitory concentration (IC50) is less than 1000 nM.

Take `Cc1nc2ccc(-c3cnc(C(C)(C)O)nc3)cc2c(N[C@H](C)c2cc(C(N)=O)ccc2F)c1C` [Example 315, (R)-4-fluoro-3-(1-((6-(2-(2-hydroxypropan-2-yl)pyrimidin-5-yl)-2,3-dimethylquinolin-4-yl)amino)ethyl)benzamide]: the IC50 lay in the range of 10000 to 25000 nM.

For `Cc1nc2ccc(-c3cnc(C(C)(C)O)nc3)cc2c(N[C@H](C)c2cc(Br)ccc2F)c1Cl` [Example 316, (R)-2-(5-(4-((1-(5-bromo-2-fluorophenyl)ethyl)amino)-3-chloro-2-methylquinolin-6-yl)pyrimidin-2-yl)propan-2-ol], the half-maximal inhibitory concentration (IC50) was less than 1000 nM.

As for `C[C@@H](Nc1c(Cl)cnc2ccc(-c3cnc(C(C)(C)O)nc3)cc12)c1cc(Br)ccc1F` [Example 318, (R)-2-(5-(4-((1-(5-bromo-2-fluorophenyl)ethyl)amino)-3-chloroquinolin-6-yl)pyrimidin-2-yl)propan-2-ol], the IC50 was less than 1000 nM.

Turning to `C[C@@H](Nc1c(Cl)cnc2ccc(-c3cnc(C(C)(C)O)nc3)cc12)c1cccc(Br)c1` [Example 319, (R)-2-(5-(4-((1-(3-bromophenyl)ethyl)amino)-3-chloroquinolin-6-yl)pyrimidin-2-yl)propan-2-ol], the IC50 is less than 1000 nM.

As for `Cc1nc2ccc(-c3cnc(C(C)(C)O)nc3)cc2c(N[C@@H](c2cc(Br)ccc2F)C(F)F)c1Cl` [Example 320, (S)-2-(5-(4-((1-(5-bromo-2-fluorophenyl)-2,2-difluoroethyl)amino)-3-chloro-2-methylquinolin-6-yl)pyrimidin-2-yl)propan-2-ol], the IC50 is less than 1000 nM.

Turning to `Cc1nc2ccc(-c3cnc(C(C)(C)O)nc3)cc2c(N[C@H](c2cc(Br)ccc2F)C(F)F)c1Cl` [Example 321, (R)-2-(5-(4-((1-(5-bromo-2-fluorophenyl)-2,2-difluoroethyl)amino)-3-chloro-2-methylquinolin-6-yl)pyrimidin-2-yl) propan-2-ol], the IC50 is 10000 to 25000 nM.

Turning to `Cc1nc2ccc(-c3cnc(C(C)(C)O)nc3)cc2c(N[C@H](C)c2ccccc2)c1Cl` [Example 322, (R)-2-(5-(3-chloro-2-methyl-4-((1-phenylethyl)amino)quinolin-6-yl)pyrimidin-2-yl)propan-2-ol], the IC50 was 10000 to 25000 nM.

In the case of `Cc1nc2ccc(-c3cnc(C(C)(C)O)nc3)cc2c(N[C@H](C)c2cc(CCO)ccc2F)c1Cl` [Example 323, (R)-2-(5-(3-chloro-4-((1-(2-fluoro-5-(2-hydroxyethyl)phenyl)ethyl)amino)-2-methylquinolin-6-yl)pyrimidin-2-yl)propan-2-ol], the IC50 was less than 1000 nM.

As for `Cc1nc2cc(F)c(-c3cnc(C(C)(C)O)nc3)cc2c(N[C@H](C)c2cc(OCCO)ccc2F)c1Cl` [Example 324, (R)-2-(5-(3-chloro-7-fluoro-4-((1-(2-fluoro-5-(2-hydroxyethoxy)phenyl)ethyl)amino)-2-methylquinolin-6-yl)pyrimidin-2-yl)propan-2-ol], the IC50 was less than 1000 nM.

Take `Cc1nc2cc(F)c(-c3cnc(C(C)(C)O)nc3)cc2c(N[C@H](C)c2cc(CCO)ccc2F)c1Cl` [Example 325, (R)-2-(5-(3-chloro-7-fluoro-4-((1-(2-fluoro-5-(2-hydroxyethyl)phenyl)ethyl)amino)-2-methylquinolin-6-yl)pyrimidin-2-yl) propan-2-ol]: the IC50 was less than 1000 nM.

Turning to `COc1ccc(F)c([C@@H](C)Nc2c(Cl)c(C)nc3ccc(-c4cnc(C(C)(C)O)nc4)cc23)c1` [Example 326, (R)-2-(5-(3-chloro-4-((1-(2-fluoro-5-methoxyphenyl)ethyl)amino)-2-methylquinolin-6-yl)pyrimidin-2-yl)propan-2-ol], the IC50 was less than 1000 nM.

As to `COc1ccc(F)c([C@@H](C)Nc2c(Cl)cnc3ccc(-c4cnc(C(C)(C)O)nc4)cc23)c1` [Example 327, (R)-2-(5-(3-chloro-4-((1-(2-fluoro-5-methoxyphenyl)ethyl)amino)quinolin-6-yl)pyrimidin-2-yl)propan-2-ol], the IC50 was less than 1000 nM.

`COc1ccc(F)c([C@@H](C)Nc2c(Cl)c(C)nc3ccc(Br)cc23)c1` [Example 328, (R)-6-bromo-3-chloro-N-(1-(2-fluoro-5-methoxyphenyl)ethyl)-2-methylquinolin-4-amine]: the half-inhibitory concentration (IC50) lay in the range of 1000 to 10000 nM.

As to `COc1ccc(F)c([C@@H](C)Nc2c(Cl)c(C)nc3ccccc23)c1` [Example 329, (R)-3-chloro-N-(1-(2-fluoro-5-methoxyphenyl)ethyl)-2-methylquinolin-4-amine], the IC50 was 1000 to 10000 nM.
